{"source": "patent US20140051714A1", "about": "“Modulators Of The GPR119 Receptor And The Treatment Of Disorders Related Thereto” (ARENA PHARMACEUTICALS, INC., priority 2011, published 2014)", "key": {"[1]": {"tested_on": "Male 129SVE mice", "assay": "GIP release in male 129SVE mice (plasma total GIP, ELISA)", "type": "in vivo", "details": "3 or 30 mg/kg p.o.; blood sample after 45 min", "procedure": "Male 129SVE mice (approximately 8 weeks old) were fasted for 18 h and randomly grouped (n=6) to receive a GPR119 agonist (Compound 1) at 3 or 30 mg/kg body weight. Compound 1 was delivered orally via a gavage needle (4 mL/kg), and after 45 min a blood sample was collected to determine plasma total GIP levels. A separate control group received vehicle (PET (80% PEG: 10% Ethanol: 10% Tween80™)). Plasma GIP levels were determined using a GIP (total) ELISA kit from Millipore."}, "[2]": {"biological_target": "T1, GPR119 receptor (Homo sapiens, UniProt Q8TDV5)", "T1 construct": "expressed in transfected cells", "T1 sequence (Q8TDV5 2-335)": "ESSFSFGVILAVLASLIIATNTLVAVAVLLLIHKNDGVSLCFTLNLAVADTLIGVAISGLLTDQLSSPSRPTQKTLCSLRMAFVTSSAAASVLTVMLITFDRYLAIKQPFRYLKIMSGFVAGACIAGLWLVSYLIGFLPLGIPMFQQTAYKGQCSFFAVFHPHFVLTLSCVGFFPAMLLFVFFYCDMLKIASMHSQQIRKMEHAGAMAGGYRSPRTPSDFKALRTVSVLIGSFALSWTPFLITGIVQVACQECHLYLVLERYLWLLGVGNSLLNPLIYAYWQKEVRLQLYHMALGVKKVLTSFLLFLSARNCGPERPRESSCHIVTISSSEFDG", "assay": "HTRF cAMP detection assay in CHO-K1 cells stably expressing the GPR119 receptor", "type": "cell-based", "procedure": "GPR119 agonist, Compound 1, was evaluated in an HTRF® cAMP detection assay (Cisbio, cAMP Dynamic 2 Assay Kit; #62AM4PEJ) according to the manufacturer's instructions using CHO-K1 cells stably expressing the GPR119 receptor. CHO-K1 cells were transduced with a lentiviral vector encoding the nucleotide sequence of GPR119 (NCBI mRNA and protein reference sequences: NM_178471.2 & NP_848566). The N-terminus of the GPR119 nucleotide sequence was modified to replace the first, methionine-coding, codon with a nucleotide sequence coding for a standard, nine amino acid, hemagglutinin tag. Following transduction, cells expressing the GPR119 receptor were isolated and a single clone was isolated following standard dilution-cloning procedures. On the day of the assay, cultured CHO-GPR119 cells were harvested, suspended in assay buffer and plated into 384-well assay plates (PerkinElmer® Proxiplate® #6008280) at a density of 2,000 cells per well. A cAMP standard curve was added to each plate. Compound 1 was dissolved in DMSO, serially diluted in DMSO and then diluted in assay buffer before addition to the cells. Compound 1 was evaluated in triplicate, using 10-point, 5-fold serial dilutions starting at 10 μM. […] Plates were then incubated at room temperature for 1 h prior to reading. Time-resolved fluorescence measurements were collected on PerkinElmer Envision™ or BMG Pherastar™ microplate readers. […]"}, "[3]": {"tested_on": "Male ZDF rats", "assay": "Oral glucose tolerance test (oGTT) in male ZDF rats", "type": "in vivo", "details": "for % Inhibition of Glucose Excursion: 60 min prior to glucose bolus (3 g/kg), AUC relative to vehicle control", "procedure": "Male ZDF rats were fasted for 18 h and randomly grouped (n=6) to receive the GPR119 agonist Compound 1 at 3, 10, or 30 mg/kg, the control compound Januvia (3 mg/kg), or a combination of Compound 1 (3 mg/kg) and Januvia (3 mg/kg). The compounds were delivered orally via a gavage needle (p.o., volume 4 mL/kg) 60 min prior to glucose bolus (3 g/kg) (time=−60 min in FIG. 4), with a separate group receiving vehicle (20% hydroxypropyl-beta-cyclodextrin (HPCD)) as control. At time 0 min. a glucose bolus was administered. Levels of blood glucose were assessed using a glucometer (One-Touch Ultra™, LifeScan) at time −60 min (prior to compound administration), at 0 min (at time when glucose bolus was given), and at 30, 60, 90, and 120 min post glucose bolus. The plasma glucose excursion curve (FIG. 4) is shown."}, "[4]": {"tested_on": "Male SD rats", "assay": "Gastric emptying in male SD rats (stomach content 6 h post-dosing)", "type": "in vivo", "details": "3, 10, or 30 mg/kg orally", "procedure": "Male SD rats were fasted for 18 h and randomly grouped (n=5). Fasted rats were allowed to access food for 30 min, and the amount of food consumed was recorded for each rat. At the end of the 30 min food intake, rats were put in cages without food and water, and dosed with Compound 1 at 3, 10, or 30 mg/kg, or vehicle control (20% HPCD) orally, or with exendin-4 (Ex-4) at 100 μg/kg i.p. Six hours post-dosing, rats were euthanized with CO2, and stomach content was determined."}, "[5]": {"tested_on": "Male 129SVE mice", "assay": "Oral glucose tolerance test (oGTT) in male 129SVE mice", "type": "in vivo", "details": "for Plasma Glucose, Mean: n=6", "procedure": "Male 129SVE mice (approximately 8 weeks old) were fasted for 18 h and randomly grouped (n=6) to receive a GPR119 agonist (Compound 1) at 3, 10, or 30 mg/kg body weight. The compound was delivered orally via a gavage needle (4 mL/kg) 30 min prior to glucose bolus (3 g/kg) (time=−30 min in FIG. 1), with a separate control group receiving vehicle (20% hydroxypropyl-beta-cyclodextrin (HPCD). At time 0 min, the glucose bolus was administered. Levels of blood glucose were assessed using a glucometer (One-Touch Ultra™, LifeScan) at time −30 min (prior to compound administration), at 0 min (at time when glucose bolus was given), and at 20, 40, 60, 120 min post glucose bolus. The plasma glucose level (Table A) and glucose excursion curve (FIG. 1) are shown. Glucose excursion reduction (area under the curve (AUC)) in compound treated animals relative to vehicle control is given in FIG. 2."}}, "data": [{"compound": "CCc1cnc(N2CCC(Oc3ncnc(Oc4ccc(S(C)(=O)=O)nc4C)c3F)CC2)nc1", "note": "[Compound 1, 4-(1-(5-ethylpyrimidin-2-yl)piperidin-4-yloxy)-5-fluoro-6-(2-methyl-6-(methylsulfonyl)pyridin-3-yloxy)pyrimidine]", "values": [{"measurement": "Effect on GIP release (plasma total GIP)", "setting": "[1]", "value": "stimulates the release of GIP"}, {"measurement": "Agonist character at GPR119 (HTRF assay)", "setting": "[2]", "value": "full agonist"}, {"measurement": "% Inhibition of Glucose Excursion", "setting": "[3]; 3 mg/kg p.o.", "value": 19.1, "unit": "%"}, {"measurement": "% Inhibition of Glucose Excursion", "setting": "[3]; 10 mg/kg p.o.", "value": 30.2, "unit": "%"}, {"measurement": "% Inhibition of Glucose Excursion", "setting": "[3]; 30 mg/kg p.o.", "value": 60.7, "unit": "%"}, {"measurement": "Effect on blood glucose after a challenge with glucose", "setting": "[3]; diabetic ZDF rats, 3, 10, or 30 mg/kg p.o.", "value": "lowered blood glucose"}, {"measurement": "Effect on gastric emptying", "setting": "[4]", "value": "no significant effect on gastric emptying"}, {"measurement": "Plasma Glucose, Mean", "setting": "[5]; 3 mg/kg p.o., 20 min post glucose bolus", "value": 282.8333, "unit": "mg/dL"}, {"measurement": "Plasma Glucose, Mean", "setting": "[5]; 3 mg/kg p.o., 40 min post glucose bolus", "value": 301.6667, "unit": "mg/dL"}, {"measurement": "Plasma Glucose, Mean", "setting": "[5]; 3 mg/kg p.o., 60 min post glucose bolus", "value": 270.6667, "unit": "mg/dL"}, {"measurement": "Plasma Glucose, Mean", "setting": "[5]; 3 mg/kg p.o., 120 min post glucose bolus", "value": 151.3333, "unit": "mg/dL"}, {"measurement": "Plasma Glucose, Mean", "setting": "[5]; 3 mg/kg p.o., time 0 min relative to glucose bolus (3 g/kg)", "value": 83.83, "unit": "mg/dL"}, {"measurement": "Plasma Glucose, Mean", "setting": "[5]; 3 mg/kg p.o., time −30 min relative to glucose bolus (prior to compound administration)", "value": 75, "unit": "mg/dL"}, {"measurement": "Plasma Glucose, Mean", "setting": "[5]; 10 mg/kg p.o., 20 min post glucose bolus", "value": 254.3333, "unit": "mg/dL"}, {"measurement": "Plasma Glucose, Mean", "setting": "[5]; 10 mg/kg p.o., 40 min post glucose bolus", "value": 276.8333, "unit": "mg/dL"}, {"measurement": "Plasma Glucose, Mean", "setting": "[5]; 10 mg/kg p.o., 60 min post glucose bolus", "value": 197.8333, "unit": "mg/dL"}, {"measurement": "Plasma Glucose, Mean", "setting": "[5]; 10 mg/kg p.o., 120 min post glucose bolus", "value": 134, "unit": "mg/dL"}, {"measurement": "Plasma Glucose, Mean", "setting": "[5]; 10 mg/kg p.o., time 0 min relative to glucose bolus (3 g/kg)", "value": 95.67, "unit": "mg/dL"}, {"measurement": "Plasma Glucose, Mean", "setting": "[5]; 10 mg/kg p.o., time −30 min relative to glucose bolus (prior to compound administration)", "value": 75.67, "unit": "mg/dL"}, {"measurement": "Effect on blood glucose after challenge with glucose", "setting": "[5]; 3, 10, or 30 mg/kg p.o., 30 min prior to glucose bolus (3 g/kg)", "value": "lowered blood glucose"}, {"measurement": "Effect on plasma glucose levels in oGTT", "setting": "[5]; dose of 10 mg/kg", "value": "significantly reduced plasma glucose levels"}]}, {"compound": "N[C@@H](CC(=O)N1CCn2c(nnc2C(F)(F)F)C1)Cc1cc(F)c(F)cc1F", "note": "[Januvia, 3(R)-amino-1-[3-(trifluoromethyl)-5,6,7,8-tetrahydro[1,2,4]triazolo[4,3-a]pyrazin-7-yl]-4-(2,4,5-trifluorophenyl)butan-1-one phosphate, reference compound]", "values": [{"measurement": "% Inhibition of Glucose Excursion", "setting": "[3]; 3 mg/kg p.o.", "value": 54.2, "unit": "%"}]}]}
